The results in this text go back to US20150299125A1, “PRODRUG BIPYRIDYLAMINOPYRIDINES AS SYK INHIBITORS” (MERCK SHARP & DOHME CORP., priority 2012, published 2015).

As a reminder, the IC50 is the concentration needed to halve the response being measured.

Each structure is given as a SMILES string.

For the experiment, the target named is T1, recombinant human GST-Syk (Homo sapiens, UniProt P43405).
T1 construct: purchased Carna Biosciences 08-176
In words: Homogeneous Time-Resolved Fluorescence (HTRF) assay for the recombinant human Syk enzyme. The class given is biochemical. To be noted: recombinant human GST-Syk 5 pM, ATP 25 μM, read-out: IC50. How it is done:
Syk inhibition of the compounds of Formula (I) may be determined using the following assay protocol: Homogeneous Time-Resolved Fluorescence (HTRF) Assay for the Recombinant Human Syk Enzyme: A recombinant GST-hSyk fusion protein was used to measure potency of compounds to inhibit human Syk activity. […] Final volume of the reaction was 10 μL. Phosphorylation of the peptide was allowed to proceed for 45' at room temperature. To quench the reaction and detect the phosphorylated product, 2 nM of a Europium-anti-phosphotyrosine antibody (Perkin Elmer #AD0161) and 70 nM SA-APC (Perkin-Elmer #CR130-100) were added together in 15 mM Tris pH 7.5, 40 mM EDTA, 0.01% tween 20. Final volume of the quenching solution was 10 μL. The resulting HTRF signal was measured after 30 minutes on a EnVision (Perkin-Elmer) reader using a time-resolved fluorescence protocol.
In the case of `Cc1cc(Nc2cc(C(F)F)ccn2)nc(-c2ccc([C@](C)(O)[C@H]3CC[C@H](C(=O)OCOC(=O)C(C)(C)O)CC3)nc2)c1` [Example 3-3, [(2-Hydroxy-2-methylpropanoyl)oxy]methyl trans-4-[(1R)-1-(6-{[4-(difluoromethyl)pyridin-2-yl]amino}-4-methyl-2,3′-bipyridin-6′-yl)-1-hydroxyethyl]cyclohexanecarboxylate], the IC50 turned out to be 2.3 nM. Take `Cc1cc(Nc2cc(C(F)F)ccn2)nc(-c2ccc([C@](C)(O)[C@H]3CC[C@H](C(=O)OCC[S+](C)[O-])CC3)nc2)c1` (stereo partly drawn) [Example 7-3, 2-(methylsulfinyl)ethyl trans-4-[(1R)-1-(6-{[4-(difluoromethyl)pyridin-2-yl]amino}-4-methyl-2,3′-bipyridin-6′-yl)-1-hydroxyethyl]cyclohexane-carboxylate]: the IC50 came to 3.3 nM.

In the case of `CSCCOC(=O)[C@H]1CC[C@H]([C@@](C)(O)c2ccc(-c3cc(C)cc(Nc4cc(C(F)F)ccn4)n3)cn2)CC1` [Example 1-7, 2-(methylsulfanyl)ethyl trans-4-[(1R)-1-(6-{[4-(difluoromethyl)pyridin-2-yl]amino}-4-methyl-2,3′-bipyridin-6′-yl)-1-hydroxyethyl] cyclohexanecarboxylate], the IC50 was determined as 18.2 nM.

`Cc1cc(Nc2cc(C(F)F)ccn2)nc(-c2ccc([C@](C)(O)[C@H]3CC[C@H](C(=O)OC(C)OC(=O)c4cnn(C)c4)CC3)nc2)c1` (stereo partly drawn) [Example 3-2, 1-[({Trans-4-[(1R)-1-(6-{[4-(difluoromethyl)pyridin-2-yl]amino}-4-methyl-2,3′-bipyridin-6′-yl)-1-hydroxyethyl]cyclohexyl}carbonyl)oxy]ethyl 1-methyl-1H-pyrazole-4-carboxylate]: the IC50 came out at 1.9 nM. As to `Cc1cc(Nc2cc(C(F)F)ccn2)nc(-c2ccc([C@](C)(O)[C@H]3CC[C@H](C(=O)OC[N+]4(C)CCN(CCO)CC4)CC3)nc2)c1` [Example 5-28, 1-{[({trans-4-[(1R)-1-(6-{[4-(difluoromethyl)pyridin-2-yl]amino}-4-methyl-2,3′-bipyridin-6′-yl)-1-hydroxyethyl]cyclohexyl}carbonyl)oxy]methyl}-4-(2-hydroxyethyl)-1-methylpiperazin-1-ium], the IC50 turned out to be 2.9 nM.

Take `Cc1cc(Nc2cc(C(F)F)ccn2)nc(-c2ccc([C@](C)(O)[C@H]3CC[C@H](C(=O)OC[N+](C)(C)CCc4ccccn4)CC3)nc2)c1` [Example 5-21, N-{[({trans-4-[(1R)-1-(6-{[4-(difluoromethyl)pyridin-2-yl]amino}-4-methyl-2,3′-bipyridin-6′-yl)-1-hydroxyethyl]cyclohexyl}carbonyl)oxy]methyl}-N,N-dimethyl-2-pyridin-2-ylethanaminium]: the IC50 was less than 0.5 nM. As for `Cc1cc(Nc2cc(C(F)F)ccn2)nc(-c2ccc([C@](C)(O)[C@H]3CC[C@H](C(=O)OCOC(=O)OCCS(C)(=O)=O)CC3)nc2)c1` [Example 7-7, ({[2-(methylsulfonyl)ethoxy]carbonyl}oxy)methyl trans-4-[(1R)-1-(6-{[4-(difluoromethyl)pyridin-2-yl]amino}-4-methyl-2,3′-bipyridin-6′-yl)-1-hydroxyethyl]cyclohexane-carboxylate], the IC50 came to 4.5 nM. `CCOCCOCCOCCOC(=O)OCOC(=O)[C@H]1CC[C@H]([C@@](C)(O)c2ccc(-c3cc(C)cc(Nc4cc(C(F)F)ccn4)n3)cn2)CC1` [Example 2-5, 3-oxo-2,4,7,10,13-pentaoxapentadec-1-yl trans-4-[(1R)-1-(6-{[4-(difluoromethyl)pyridin-2-yl]amino}-4-methyl-2,3′-bipyridin-6′-yl)-1-hydroxyethyl]cyclo hexanecarboxylate]: the IC50 came out at 7.5 nM. The result for `COc1ccc(OC(=O)[C@H]2CC[C@H]([C@@](C)(O)c3ccc(-c4cc(C)cc(Nc5cc(C(F)F)ccn5)n4)cn3)CC2)cc1` [Example 1-28, 4-methoxyphenyl trans-4-[(1R)-1-(6-{[4-(difluoromethyl)pyridin-2-yl]amino}-4-methyl-2,3′-bipyridin-6′-yl)-1-hydroxyethyl] cyclohexanecarboxylate] reads 7.2 nM; that for `CCOCCOCCOC(=O)OC(C)OC(=O)[C@H]1CC[C@H]([C@@](C)(O)c2ccc(-c3cc(C)cc(Nc4cc(C(F)F)ccn4)n3)cn2)CC1` (stereo partly drawn) [Example 2-15, 1-methyl-3-oxo-2,4,7,10-tetraoxadodec-1-yl trans-4-[(1R)-1-(6-{[4-(difluoromethyl)pyridin-2-yl]amino}-4-methyl-2,3′-bipyridin-6′-yl)-1-hydroxyethyl]cyclo hexanecarboxylate], 32.9 nM. As to `CCOC(=O)C[N+](C)(C)COC(=O)[C@H]1CC[C@H]([C@@](C)(O)c2ccc(-c3cc(C)cc(Nc4cc(C(F)F)ccn4)n3)cn2)CC1` [Example 5-19, N-{[({trans-4-[(1R)-1-(6-{[4-(difluoromethyl)pyridin-2-yl]amino}-4-methyl-2,3′-bipyridin-6′-yl)-1-hydroxyethyl]cyclohexyl}carbonyl)oxy]methyl}-2-ethoxy-N,N-dimethyl-2-oxoethanaminium], the IC50 stood at 0.8 nM.

For the compound `COCCN(C)C(=O)OC(C)OC(=O)[C@H]1CC[C@H]([C@@](C)(O)c2ccc(-c3cc(C)cc(Nc4cc(C(F)F)ccn4)n3)cn2)CC1` (single isomer, unassigned) [Example 4-1b], the IC50 came to 12.9 nM. Take `Cc1cc(Nc2cc(C(F)F)ccn2)nc(-c2ccc([C@](C)(O)[C@H]3CC[C@H](C(=O)OC[C@@H](O)CO)CC3)nc2)c1` [Example 1-3, (2S)-2,3-Dihydroxypropyl trans-4-[(1R)-1-(6-{[4-(difluoromethyl)pyridin-2-yl]amino}-4-methyl-2,3′-bipyridin-6′-yl)-1-hydroxyethyl]cyclohexanecarboxylate]: the IC50 is 2.5 nM. The result for `Cc1cc(Nc2cc(C(F)F)ccn2)nc(-c2ccc([C@](C)(O)[C@H]3CC[C@H](C(=O)Oc4ccccc4)CC3)nc2)c1` [Example 1-6, Phenyl trans-4-[(1R)-1-(6-{[4-(difluoromethyl)pyridin-2-yl]amino}-4-methyl-2,3′-bipyridin-6′-yl)-1-hydroxyethyl]cyclohexanecarboxylate] reads 9.7 nM; that for `Cc1cc(Nc2cc(C(F)F)ccn2)nc(-c2ccc([C@](C)(O)[C@H]3CC[C@H](C(=O)OC[N+](C)(C4CCCCC4)C4CCCCC4)CC3)nc2)c1` [Example 5-24, N-cyclohexyl-N-{[({trans-4-[(1R)-1-(6-{[4-(difluoromethyl)pyridin-2-yl]amino}-4-methyl-2,3′-bipyridin-6′-yl)-1-hydroxyethyl]cyclohexyl}carbonyl)oxy]methyl}-N-methylcyclohexanaminium], 1 nM; that for `CCCC[N+](CCCC)(CCCC)COC(=O)[C@H]1CC[C@H]([C@@](C)(O)c2ccc(-c3cc(C)cc(Nc4cc(C(F)F)ccn4)n3)cn2)CC1` [Example 5-4, N,N-dibutyl-N-{[({trans-4-[(1R)-1-(6-{[4-(difluoromethyl)pyridin-2-yl]amino}-4-methyl-2,3′-bipyridin-6′-yl)-1-hydroxyethyl]cyclohexyl}carbonyl)oxy]methyl}butan-1-aminium], 1.1 nM. As for `Cc1cc(Nc2cc(C(F)F)ccn2)nc(-c2ccc([C@](C)(O)[C@H]3CC[C@H](C(=O)OC[N+]4(C)CCC(F)(F)CC4)CC3)nc2)c1` [Example 5-13, 1-{[({trans-4-[(1R)-1-(6-{[4-(difluoromethyl)pyridin-2-yl]amino}-4-methyl-2,3′-bipyridin-6′-yl)-1-hydroxyethyl]cyclohexyl}carbonyl)oxy]methyl}-4,4-difluoro-1-methylpiperidinium], the figure is 1.3 nM; as for `Cc1cc(Nc2cc(C(F)F)ccn2)nc(-c2ccc([C@](C)(O)[C@H]3CC[C@H](C(=O)OC[C@H]4OC(O)[C@H](O)[C@@H](O)[C@@H]4O)CC3)nc2)c1` (stereo partly drawn) [Example 1-4, 6-O-({trans-4-[(1R)-1-(6-{[4-(difluoromethyl)pyridin-2-yl]amino}-4-methyl-2,3′-bipyridin-6′-yl)-1-hydroxyethyl]cyclohexyl}carbonyl)-D-glucopyranose], 0.8 nM; as for `COCCOCCNC(=O)OCOC(=O)[C@H]1CC[C@H]([C@@](C)(O)c2ccc(-c3cc(C)cc(Nc4cc(C(F)F)ccn4)n3)cn2)CC1` [Example 4-3, 3-oxo-2,7,10-trioxa-4-azaundec-1-yl trans-4-[(1R)-1-(6-{[4-(difluoromethyl)pyridin-2-yl]amino}-4-methyl-2,3′-bipyridin-6′-yl)-1-hydroxyethyl]cyclohexanecarboxylate], 2.4 nM. Take `CCOCC(COCC)OC(=O)OCOC(=O)[C@H]1CC[C@H]([C@@](C)(O)c2ccc(-c3cc(C)cc(Nc4cc(C(F)F)ccn4)n3)cn2)CC1` [Example 2-8, ({[2-ethoxy-1-(ethoxymethyl)ethoxy]carbonyl}oxy) methyl trans-4-[(1R)-1-(6-{[4-(difluoromethyl)pyridin-2-yl]amino}-4-methyl-2,3′-bipyridin-6′-yl)-1-hydroxyethyl]cyclo hexanecarboxylate]: the IC50 is 22.8 nM. The result for `Cc1cc(Nc2cc(C(F)F)ccn2)nc(-c2ccc([C@](C)(O)[C@H]3CC[C@H](C(=O)OCOC(=O)CO)CC3)nc2)c1` [Example 3-5, [(hydroxyacetyl)oxy] methyl trans-4-[(1R)-1-(6-{[4-(difluoromethyl)pyridin-2-yl]amino}-4-methyl-2,3′-bipyridin-6′-yl)-1-hydroxyethyl]cyclohexane carboxylate] reads less than 0.5 nM.
